Source: patent US12435087B2, “Modulators of DCN-1 and methods of use thereof” (Cellarity, Inc., priority 2023, dated 2025)
Read-outs that look alike come from different tables or passages of the source.

Experiments:
DCN1 protein = DCN1 protein (Homo sapiens (Human), UniProt Q96GG9); test: Intact protein MS analysis with the RapidFire-TOF system (covalent adduct formation); format: binding; conditions: 400 nM DCN1, incubated at room temperature for 3 hours
Outline: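 Tag-free His-TEV-DCN1 expressed in E. coli at 400 nM in 25 mM Tris-HCl, 200 mM NaCl, 1 mM DTT, incubated with 11 compound concentrations at room temperature for 3 h unless otherwise specified. Quenched with 0.2% formic acid; intact-protein RapidFire Q-TOF MS, deconvoluted to detect parent and compound-adduct masses.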

[1] = target: DCN1 (DCUND1) protein PONY domain (Homo sapiens (Human), UniProt Q96GG9); test: TR-FRET assay (binding to DCN-1, displacement of FAM-labeled probe)
DCN1 (DCUND1) protein PONY domain, sequence (Q96GG9 60-248): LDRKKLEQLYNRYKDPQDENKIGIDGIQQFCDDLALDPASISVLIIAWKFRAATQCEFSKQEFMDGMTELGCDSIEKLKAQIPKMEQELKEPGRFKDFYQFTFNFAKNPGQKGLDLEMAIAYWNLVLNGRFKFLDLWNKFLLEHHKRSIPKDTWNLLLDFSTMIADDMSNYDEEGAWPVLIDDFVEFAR
Outline: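 Compounds read at 1, 5 and 24 h, 0.1% final DMSO, by TR-FRET between terbium-streptavidin on biotinylated DCN1 PONY domain (E. coli) and a FAM-tagged non-covalent inhibitor probe. Two setups used, 5 nM protein with 20 nM labelled probe, or 0.31 nM protein with 100 nM labelled plus 800 nM unlabelled probe; buffer had TritonX and 200 mM NaCl. % activity relative to high (with probe) and low (without probe) controls.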

[2] = 24 hr after treatment with compound, read-out: TR FRET IC50 24 hr
[3] = read-out: TR FRET IC50 1 hr, 1 hr after treatment with compound
[4] = TR FRET IC50 1 hr (nM), 1 hr after treatment with compound

DCN1 protein, sequence (Q96GG9 whole entry): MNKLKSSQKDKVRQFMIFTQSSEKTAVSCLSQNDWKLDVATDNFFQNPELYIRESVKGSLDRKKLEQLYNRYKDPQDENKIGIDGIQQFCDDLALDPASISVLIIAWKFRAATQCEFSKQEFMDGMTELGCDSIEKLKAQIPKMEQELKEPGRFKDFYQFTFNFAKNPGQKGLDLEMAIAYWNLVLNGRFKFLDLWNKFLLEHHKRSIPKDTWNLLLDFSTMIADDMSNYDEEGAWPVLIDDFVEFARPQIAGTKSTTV

Row | SMILES | Emax (DCN1 protein) [%] | IC50 [1, 2] [nM] | IC50 [1, 3] [nM] | IC50 [1, 4] [nM]
1 | C=C(CN1CCN(C2COC2)CC1)C(=O)NCc1cccc([C@@H]2c3cnn(-c4ccccc4)c3N(CC)C(=O)[C@H]2NC(=O)c2cccc(C(F)(F)F)c2)c1 [Compound I-4] | 80 to 100 | ≤ 200 | ≤ 200 | –
2 | C=C(CN1CC2(COC2)C1)C(=O)NCc1cccc([C@@H]2c3cnn(-c4ccccc4)c3N(CC)C(=O)[C@H]2NC(=O)c2cccc(C(F)(F)F)c2)c1 [Compound I-6] | 80 to 100 | ≤ 200 | ≤ 200 | –
3 | C=C(CN1CC(F)(F)C1)C(=O)NCc1cccc([C@@H]2c3cnn(-c4ccccc4)c3N(CC)C(=O)[C@H]2NC(=O)c2cccc(C(F)(F)F)c2)c1 [Compound I-14] | 80 to 100 | ≤ 200 | ≤ 200 | –
4 | CCN1C(=O)[C@@H](NC(=O)c2cccc(C(F)(F)F)c2)[C@H](c2cccc(NC(=O)C3=C(C(=O)OC)CC3)c2)c2c(C)nn(-c3ccccc3)c21 [Compound I-34] | 80 to 100 | ≤ 200 | ≤ 200 | –
5 | C=C(CN1CCC(F)(F)C1)C(=O)NCc1cccc([C@@H]2c3cnn(-c4ccccc4)c3N(CC)C(=O)[C@H]2NC(=O)c2cccc(C(F)(F)F)c2)c1 [Compound I-44] | 80 to 100 | ≤ 200 | – | 200 to 1000
6 | C=C(CN1CCOCC1)C(=O)NCc1cccc([C@@H]2c3cnn(-c4ccccc4)c3N(CC)C(=O)[C@H]2NC(=O)c2cccc(C(F)(F)F)c2)c1 [Compound I-62] | 80 to 100 | ≤ 200 | ≤ 200 | –
7 | C=C(CN(C)C1COC1)C(=O)NCc1cccc([C@@H]2c3cnn(-c4ccccc4)c3N(CC)C(=O)[C@H]2NC(=O)c2cccc(C(F)(F)F)c2)c1 [Compound I-66] | 80 to 100 | ≤ 200 | ≤ 200 | –
8 | C=C(CN1CCOCC1)C(=O)NCc1cccc([C@@H]2c3cnn(-c4ccccc4)c3N(CC)C(=O)[C@H]2NC(=O)c2nccc(C(F)(F)F)n2)c1 [Compound I-82] | 80 to 100 | ≤ 200 | ≤ 200 | –
9 | C=C(CN1CCOCC1)C(=O)NCc1cccc([C@@H]2c3cnn(-c4ccccc4)c3N(CC)C(=O)[C@H]2NC(=O)c2ccnn2C(F)(F)F)c1 [Compound I-86] | 0 to 30 | 1000 to 3000 | – | 1000 to 3000
10 | C=C(CN1CCOCC1)C(=O)NCc1cccc([C@@H]2c3cnn(-c4ccccc4)c3N(CC)C(=O)[C@H]2NC(=O)c2ccn(C(F)(F)F)n2)c1 [Compound I-135] | 80 to 100 | ≤ 200 | ≤ 200 | –
11 | CCN1C(=O)[C@@H](NC(=O)c2cccc(C(F)(F)F)c2)[C@H](c2cccc(NC(=O)/C=C/CN(C)C)n2)c2cnn(-c3ccccc3)c21 [Compound I-214] | 80 to 100 | ≤ 200 | – | 200 to 1000
12 | C=C(CN1CCOCC1)C(=O)NCc1cccc([C@@H]2c3c(C)nn(-c4ccccc4)c3N(CC)C(=O)[C@H]2NC(=O)c2cccc(C(F)(F)F)c2)c1 [Compound I-215] | 80 to 100 | ≤ 200 | ≤ 200 | –
13 | C=C(CN1CCN(C2COC2)CC1)C(=O)NCc1cccc([C@@H]2c3cnn(-c4ccccc4)c3N(CC)C(=O)[C@H]2NC(=O)c2cccc(C(F)(F)F)c2)n1 [Compound I-216] | 80 to 100 | ≤ 200 | – | 200 to 1000
14 | C=C(C(=O)NCc1cccc([C@@H]2c3cnn(-c4ccccc4)c3N(CC)C(=O)[C@H]2NC(=O)c2nccc(C(F)(F)F)n2)c1)C(C)N(C)C1COC1 (some centres unmarked) [Compound I-217] | 80 to 100 | ≤ 200 | ≤ 200 | –
15 | C=C(CN1CCN(C2COC2)CC1)C(=O)N(C)Cc1cccc([C@@H]2c3cnn(-c4ccccc4)c3N(CC)C(=O)[C@H]2NC(=O)c2cccc(C(F)(F)F)c2)c1 [Compound I-218] | 80 to 100 | ≤ 200 | – | ≤ 200
16 | C=C(CN1CC2(COC2)C1)C(=O)N(C)Cc1cccc([C@@H]2c3cnn(-c4ccccc4)c3N(CC)C(=O)[C@H]2NC(=O)c2cccc(C(F)(F)F)c2)c1 [Compound I-219] | 80 to 100 | ≤ 200 | – | 200 to 1000
17 | C/C=C(\CN1CCN(C2COC2)CC1)C(=O)NCc1cccc([C@@H]2c3cnn(-c4ccccc4)c3N(CC)C(=O)[C@H]2NC(=O)c2nccc(C(F)(F)F)n2)c1 [Compound I-220] | 80 to 100 | ≤ 200 | – | 200 to 1000
18 | C=C(C(=O)NCc1cccc([C@@H]2c3cnn(-c4ccccc4)c3N(CC)C(=O)[C@H]2NC(=O)c2nccc(C(F)(F)F)n2)c1)C(C)N1CC2(COC2)C1 (stereo partly drawn) [Compound I-221, N-((4R,5S)-7-ethyl-4-(3-((2-methylene-3-(2-oxa-6-azaspiro[3.3]heptan-6-yl)butanamido)methyl)phenyl)-6-oxo-1-phenyl-4,5,6,7-tetrahydro-1H-pyrazolo[3,4-b]pyridin-5-yl)-4-(trifluoromethyl)pyrimidine-2-carboxamide] | 80 to 100 | ≤ 200 | ≤ 200 | –
19 | C/C=C(\CN1CCN(C2COC2)CC1)C(=O)NCc1cccc([C@@H]2c3cnn(-c4ccccc4)c3N(CC)C(=O)[C@H]2NC(=O)c2cccc(C(F)(F)F)c2)c1 [Compound I-222] | 80 to 100 | ≤ 200 | – | 200 to 1000
20 | C=C(CN1CCN(C2COC2)CC1)C(=O)N(C)Cc1cccc([C@@H]2c3cnn(-c4ccccc4)c3N(CC)C(=O)[C@H]2NC(=O)c2nccc(C(F)(F)F)n2)c1 [Compound I-223] | 80 to 100 | ≤ 200 | ≤ 200 | –
21 | CCN1C(=O)[C@@H](NC(=O)c2nccc(C(F)(F)F)n2)[C@H](c2cccc(NC(=O)C3=CCN(C)C3)c2)c2c(C)nn(-c3ccccc3)c21 [Compound I-224] | 80 to 100 | ≤ 200 | – | 200 to 1000
22 | CCN1CC=C(C(=O)Nc2cccc([C@@H]3c4c(C)nn(-c5ccccc5)c4N(CC)C(=O)[C@H]3NC(=O)c3nccc(C(F)(F)F)n3)c2)C1 [Compound I-225] | 80 to 100 | – | – | 200 to 1000
23 | CCN1C(=O)[C@@H](NC(=O)c2nccc(C(F)(F)F)n2)[C@H](c2cccc(NC(=O)C3=CCN(C4COC4)C3)c2)c2c(C)nn(-c3ccccc3)c21 [Compound I-226] | 0 to 30 | 200 to 1000 | – | 1000 to 3000
24 | CCN1CC=C(C(=O)Nc2cccc([C@@H]3c4c(C)nn(-c5ccccc5)c4N(CC)C(=O)[C@H]3NC(=O)c3ccn(C(F)(F)F)n3)c2)C1 [Compound I-227] | 80 to 100 | ≤ 200 | – | 200 to 1000
25 | C=C(CN1CCC(F)(F)C1)C(=O)Nc1cccc([C@@H]2c3c(C)nn(-c4ccccc4)c3N(CC)C(=O)[C@H]2NC(=O)c2nccc(C(F)(F)F)n2)c1 [Compound I-228] | 80 to 100 | ≤ 200 | ≤ 200 | –
26 | C/C=C(\CN1CCN(C2COC2)CC1)C(=O)NCc1cccc([C@@H]2c3cnn(-c4ccccc4)c3N(CC)C(=O)[C@H]2NC(=O)c2ccn(C(F)(F)F)n2)c1 [Compound I-230A, N-((4R,5S)-7-ethyl-4-(3-(((E)-2-((4-(oxetan-3-yl)piperazin-1-yl)methyl)but-2-enamido)methyl)phenyl)-6-oxo-1-phenyl-4,5,6,7-tetrahydro-1H-pyrazolo[3,4-b]pyridin-5-yl)-1-(trifluoromethyl)-1H-pyrazole-3-carboxamide] | 80 to 100 | ≤ 200 | – | 200 to 1000
27 | C=C(C(=O)NCc1cccc([C@@H]2c3cnn(-c4ccccc4)c3N(CC)C(=O)[C@H]2NC(=O)c2csc(C(F)(F)F)n2)c1)C(C)(C)N(C)C1COC1 [Compound I-231, N-((4R,5S)-7-ethyl-4-(3-((3-methyl-3-(methyl(oxetan-3-yl)amino)-2-methylenebutanamido)methyl)phenyl)-6-oxo-1-phenyl-4,5,6,7-tetrahydro-1H-pyrazolo[3,4-b]pyridin-5-yl)-2-(trifluoromethyl)thiazole-4-carboxamide] | 80 to 100 | ≤ 200 | ≤ 200 | –
28 | C/C=C(\CN1CCN(C2COC2)CC1)C(=O)Nc1cccc([C@@H]2c3cnn(-c4ccccc4)c3N(CC)C(=O)[C@H]2NC(=O)c2nccc(C(F)(F)F)n2)c1 [Compound I-232, N-((4R,5S)-7-ethyl-4-(3-((E)-2-((4-(oxetan-3-yl)piperazin-1-yl)methyl)but-2-enamido)phenyl)-6-oxo-1-phenyl-4,5,6,7-tetrahydro-1H-pyrazolo[3,4-b]pyridin-5-yl)-4-(trifluoromethyl)pyrimidine-2-carboxamide] | 80 to 100 | ≤ 200 | – | ≤ 200
29 | C/C=C(\CN1CCN(C2COC2)CC1)C(=O)Nc1cccc([C@@H]2c3cnn(-c4ccccc4)c3N(CC)C(=O)[C@H]2NC(=O)c2ccn(C3CC3)n2)c1 [Compound I-233] | 80 to 100 | ≤ 200 | – | ≤ 200
